Counter-ions that a name gives are not always drawn. Like-named read-outs stand apart in the source and are kept apart here.
Tests used:
[1] = system: leukotriene pathway in human whole blood (LTB4 levels); assay: Human whole blood assay (A23187-stimulated LTB4); type: cell-based; conditions: Homo sapiens, read-out: LTB4 IC50 1:1
Method in brief: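 Single-replicate data from at least one healthy donor: compound pre-incubated 15 min at 37° Celsius in 1:1 RPMI-diluted heparinised blood, followed by 30 min calcium ionophore A23187 (7 μg/mL) challenge at 37° Celsius. LTB4 in plasma quantified by kit; IC50 via 4-parameter equation.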

human FLAP = human FLAP (Homo sapiens (Human), UniProt P20292); assay: FLAP binding assay (HTRF format); conditions: HTRF format
Chain of human FLAP (P20292 whole entry): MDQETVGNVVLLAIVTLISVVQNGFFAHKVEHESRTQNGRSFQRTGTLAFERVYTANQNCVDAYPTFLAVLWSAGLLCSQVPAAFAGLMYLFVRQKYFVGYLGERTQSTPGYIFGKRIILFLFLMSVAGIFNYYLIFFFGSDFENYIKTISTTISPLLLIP
Method in brief: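 Samples were run in duplicate on each of two plates and the plate results averaged. Read-out is the HTRF signal ratio.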

[2] = human whole blood diluted 1:1, A23187-stimulated
[3] = human whole blood diluted 1:1 in RPMI, A23187-stimulated LTB4
[4] = human FLAP wild type, average of two plates, duplicates

| SMILES | IC50 [1, 2] | Ki (human FLAP; wild type FLAP) | IC50 [1, 3] | Ki (human FLAP; [4]) |
| --- | --- | --- | --- | --- |
| Nc1cnc(-c2ccc(-c3ccccc3NS(=O)(=O)N3CCOCC3)cc2F)cn1 [Example 183, N-[4′-(5-Aminopyrazin-2-yl)-3′-fluorobiphenyl-2-yl]morpholine-4-sulfonamide] |  |  | 130 nM | 34 nM |
| N#Cc1nc(N)cnc1-c1ccc(-c2ccccc2S(=O)(=O)NCCO)cc1F [Example 706, 4′-(5-Amino-3-cyanopyrazin-2-yl)-3′-fluoro-N-(2-hydroxyethyl)biphenyl-2-sulfonamide] | 362 nM | 79.6 nM |  |  |
| CC(C)Oc1ncccc1-c1ccc(-c2cnc(N)cn2)c(F)c1 [Example 401, 5-{2-Fluoro-4-[2-(1-methylethoxy)pyridin-3-yl]phenyl}pyrazin-2-amine] | 538 nM | 158 nM |  |  |
| Nc1ncc(-c2ccc(-c3cccnc3S(=O)(=O)C3CCS(=O)(=O)CC3)cc2F)cn1 [Example 819, 4-((3-(4-(2-aminopyrimidin-5-yl)-3-fluorophenyl)pyridine-2-yl)sulfonyl)tetrahydro-2H-thiopyran 1,1-dioxide] | 47.5 nM | 40.5 nM |  |  |
| C[C@H](O)CNS(=O)(=O)c1ccccc1-c1ccc(-c2cnc(N)cn2)c(F)c1 [Example 98, (S)-4′-(5-aminopyrazin-2-yl)-3′-fluoro-N-(2-hydroxypropyl)-[1,1′-biphenyl]-2-sulfonamide] |  |  | 39 nM | 8 nM |
| Cc1cc(C)nc(Oc2ccccc2-c2ccc(-c3cnc(N)nc3)c(F)c2)n1 [Example 609, 5-{2′-[(4,6-Dimethylpyrimidin-2-yl)oxy]-3-fluorobiphenyl-4-yl}pyrimidin-2-amine] | 768 nM | 246 nM |  |  |
| CS(=O)(=O)Nc1ccccc1-c1ccc(-c2cnc(N)cn2)c(F)c1 [Example 2, N-[4′-(5-Aminopyrazin-2-yl)-3′-fluorobiphenyl-2-yl]methanesulfonamide] |  |  | 358 nM | 286 nM |
| CC[C@@H](CO)NS(=O)(=O)c1ccccc1-c1ccc(-c2cnc(N)nc2)c(F)c1 [Example 248, 4′-(2-Aminopyrimidin-5-yl)-3′-fluoro-N-[(1S)-1-(hydroxymethyl)propyl]biphenyl-2-sulfonamide] |  |  | 124 nM | 50 nM |
| CSc1ccccc1-c1ccc(-c2cnc(N)cn2)c(F)c1 [Example 474, 5-[3-Fluoro-2′-(methylsulfanyl)biphenyl-4-yl]pyrazin-2-amine] | 2650 nM | 21 nM |  |  |
| Nc1cnc(-c2ccc(-c3ccccc3S(=O)(=O)N[C@@H](CO)[C@@H](O)c3ccccc3)cc2F)cn1 [Example 78, 4′-(5-Aminopyrazin-2-yl)-3′-fluoro-N-[(1S,2S)-2-hydroxy-1-(hydroxymethyl)-2-phenylethyl]biphenyl-2-sulfonamide] |  |  | 166 nM | 1 nM |
| Nc1ccc(-c2ccc(-c3ccccc3S(=O)(=O)NCC3(O)CNC3)cc2F)cn1 [Example 358, 4′-(6-Aminopyridin-3-yl)-3′-fluoro-N-((3-hydroxyazetidin-3-yl)methyl)-[1,1′-biphenyl]-2-sulfonamide] |  |  | > 10000 nM | 55 nM |
| Nc1cc(Oc2cc(C(F)(F)F)ccc2-c2ccc(-c3cnc(N)nc3)c(F)c2)ncn1 [Example 561, 5-{2′-[(6-Aminopyrimidin-4-yl)oxy]-3-fluoro-4′-(trifluoromethyl)biphenyl-4-yl}pyrimidin-2-amine] | 43 nM | 4 nM |  |  |
| Nc1ncc(-c2ccc(-c3ccccc3S(=O)(=O)N3CCCC(CCO)C3)cc2F)cc1F (racemic) [Example 671, 2-(1-((4′-(6-Amino-5-fluoropyridin-3-yl)-3′-fluoro-[1,1′-biphenyl]-2-yl)sulfonyl)piperidin-3-yl)ethanol] | 164 nM | 15.7 nM |  |  |
| Nc1cnc(-c2ccc(-c3ccccc3S(=O)(=O)NCCCCCCO)cc2F)cn1 [Example 133, 4′-(5-Aminopyrazin-2-yl)-3′-fluoro-N-(6-hydroxyhexyl)biphenyl-2-sulfonamide] |  |  | 32 nM | 1 nM |

Further lines, results first:

| IC50 [1, 2] | Ki (human FLAP; wild type FLAP) | IC50 [1, 3] | Ki (human FLAP; [4]) | SMILES |
| --- | --- | --- | --- | --- |
| 4800 nM | 284 nM |  |  | CNS(=O)(=O)c1ccccc1-c1ccc(-c2ccc3[nH]cnc3c2)c(F)c1 [Example 423, 4′-(1H-Benzimidazol-5-yl)-3′-fluoro-N-methylbiphenyl-2-sulfonamide] |
|  |  | 12 nM | 3 nM | Nc1cnc(-c2ccc(-c3ccccc3S(=O)(=O)N3CCC(O)CC3)cc2F)cn1 [Example 67, 1-{[4′-(5-Aminopyrazin-2-yl)-3′-fluorobiphenyl-2-yl]sulfonyl}piperidin-4-ol] |
| > 10000 nM | > 10000 nM |  |  | CC(C)(C)NS(=O)(=O)c1ccccc1-c1ccc(-c2cnc(N)nc2C(F)(F)F)c(F)c1 [Example 453, 4′-[2-Amino-4-(trifluoromethyl)pyrimidin-5-yl]-N-tert-butyl-3′-fluorobiphenyl-2-sulfonamide trifluoroacetic acid salt] |
| 2340 nM | 73.5 nM |  |  | CC(CO)Oc1ncccc1-c1ccc(-c2cnc(N)cn2)c(F)c1 (stereo in doubt) [Example 657, (2S)-2-({3-[4-(5-Aminopyrazin-2-yl)-3-fluorophenyl]pyridin-2-yl}oxy)propan-1-ol] |
|  |  | 144 nM | 28 nM | Nc1ncc(-c2ccc(-c3ccccc3S(=O)(=O)N3CCS(=O)(=O)CC3)cc2F)cn1 [Example 264, 5-{2′-[(1,1-Dioxidothiomorpholin-4-yl)sulfonyl]-3-fluorobiphenyl-4-yl}pyrimidin-2-amine trifluoroacetic salt] |
| 299 nM | 135 nM |  |  | Nc1cnc(-c2ccc(-c3ccccc3CS(=O)(=O)c3ncccn3)cc2F)cn1 [Example 752, 5-{3-Fluoro-2′-[(pyrimidin-2-ylsulfonyl)methyl]biphenyl-4-yl}pyrazin-2-amine] |
| 891 nM | 32 nM |  |  | Nc1cnc(-c2ccc(-c3ccccc3O)cc2F)cn1 [Example 476, 4′-(5-Aminopyrazin-2-yl)-3′-fluorobiphenyl-2-ol] |
|  |  | 54 nM | 4 nM | Nc1ccc(-c2ccc(-c3ccccc3S(=O)(=O)N3CCC(CCO)CC3)cc2F)cn1 [Example 359, 2-(1-((4′-(6-Aminopyridin-3-yl)-3′-fluoro-[1,1′-biphenyl]-2-yl)sulfonyl)piperidin-4-yl)ethanol] |
| 1830 nM | 503 nM |  |  | CC(CO)Oc1ncccc1-c1ccc(-c2cnc(N)cn2)c(F)c1 (stereo in doubt) [Example 655, (2R)-2-({3-[4-(5-Aminopyrazin-2-yl)-3-fluorophenyl]pyridin-2-yl}oxy)propan-1-ol] |
| 3270 nM | ~250 nM |  |  | Nc1cnc(-c2ccc(-c3ccc(Br)cc3F)cc2F)cn1 [Example 696, 5-(4′-Bromo-2′,3-difluorobiphenyl-4-yl)pyrazin-2-amine] |
|  |  | 15 nM | 1 nM | Nc1cnc(-c2ccc(-c3ccccc3S(=O)(=O)N3CCCC(F)(F)C3)cc2F)cn1 [Example 50, 5-{2′-[(3,3-Difluoropiperidin-1-yl)sulfonyl]-3-fluorobiphenyl-4-yl}pyrazin-2-amine] |
|  |  | 61 nM | 15 nM | Nc1cnc(-c2ccc(-c3ccccc3S(=O)(=O)C3CCS(=O)(=O)CC3)cc2F)cn1 [Example 241, 5-{2′-[(1,1-Dioxidotetrahydro-2H-thiopyran-4-yl)sulfonyl]-3-fluorobiphenyl-4-yl}pyrazin-2-amine] |
| 17 nM | 1 nM |  |  | Nc1cnc(-c2ccc(-c3ccccc3Oc3cc(N)ncn3)cc2F)cn1 [Example 535, 6-{[4′-(5-Aminopyrazin-2-yl)-3′-fluorobiphenyl-2-yl]oxy}pyrimidin-4-amine] |
|  |  | 12 nM | 1 nM | Nc1cnc(-c2ccc(-c3ccccc3S(=O)(=O)N[C@H](CO)Cc3ccccc3)cc2F)cn1 [Example 116, (S)-4′-(5-Aminopyrazin-2-yl)-3′-fluoro-N-(1-hydroxy-3-phenylpropan-2-yl)-[1,1′-biphenyl]-2-sulfonamide] |
| 1110 nM | 370 nM |  |  | NC(=O)C1(S(=O)(=O)c2ccccc2-c2ccc(-c3cnc(N)nc3)c(F)c2)CCCC1 [Example 739, 1-{[4′-(2-Aminopyrimidin-5-yl)-3′-fluorobiphenyl-2-yl]sulfonyl}cyclopentanecarboxamide] |
| 36 nM | 1 nM |  |  | CC(C)(C)NS(=O)(=O)c1ccccc1-c1ccc(-c2cnc(N)c(C#N)n2)c(F)c1 [Example 434, 4′-(5-Amino-6-cyanopyrazin-2-yl)-N-tert-butyl-3′-fluorobiphenyl-2-sulfonamide] |
| 44.3 nM | 15.6 nM |  |  | Nc1cnc(-c2ccc(-c3ccccc3-c3cnc(N)nc3)cc2F)cn1 [Example 843, 5-[4′-(5-Aminopyrazin-2-yl)-3′-fluorobiphenyl-2-yl]pyrimidin-2-amine] |
| 89.4 nM | 5 nM |  |  | Nc1cnc(-c2ccc(-c3ccc(C(F)(F)F)cc3C=O)cc2F)cn1 [Example 604, 4′-(5-Aminopyrazin-2-yl)-3′-fluoro-4-(trifluoromethyl)biphenyl-2-carbaldehyde] |
|  |  | 202 nM | 243 nM | Nc1ncc(-c2ccc(-c3ccccc3S(=O)(=O)N3CCNC[C@@H]3CO)cc2F)cn1 [Example 258, [(2R)-1-{[4′-(2-Aminopyrimidin-5-yl)-3′-fluorobiphenyl-2-yl]sulfonyl}piperazin-2-yl]methanol] |
| 123 nM | 9 nM |  |  | COc1cnc(Oc2ccccc2-c2ccc(-c3cnc(N)cn3)c(F)c2)nc1 [Example 549, 5-{3-Fluoro-2′-[(5-methoxypyrimidin-2-yl)oxy]biphenyl-4-yl}pyrazin-2-amine] |
|  |  | 11 nM | 1 nM | O=S(=O)(c1ccccc1-c1ccc(-c2cnc3[nH]ccc3n2)c(F)c1)N1CCCCC1 [Example 374, 2-[3-Fluoro-2′-(piperidin-1-ylsulfonyl)biphenyl-4-yl]-5H-pyrrolo[2,3-b]pyrazine] |

Reference: patent US9079866B2, “Flap modulators” (JANSSEN PHARMACEUTICA NV, priority 2013, dated 2015)
